Tests used:
[1] = biological target: N-LANA peptide binding to nucleosomes (histones H2A/H2B) (Gallus gallus, UniProt P02263+P0C1H3); experiment: biochemical; design: species or system chicken; conditions: for Identified as hit in pilot screen (Z score < −2 for both replicates): pilot screen of known bioactives; for Scored positive for inhibition in HTS at ICCB-L/NSRB: 49,810 small molecules screened in duplicate, Z score
salmon sperm DNA = experiment: Counterscreen to detect DNA intercalators; assay type: binding; conditions: for DNA intercalation (competition with acridine orange): pilot screen hits at increasing concentrations; for Competition with acridine orange for DNA intercalation (acridine orange mP values): assay validation, increasing concentration, monensin up to 1uM
[2] = biological target: GST LANA1-23 binding to nucleosomes (Gallus gallus, UniProt P02263+P0C1H3); experiment: ELISA, inhibition of GST LANA1-23 binding to nucleosomes; design: species or system chicken; conditions: increasing concentrations of competitor or compound

Row | SMILES | Confirmation of inhibitory activity by FP ([1]; pilot screen hits retested at increasing concentrations) | Identified as hit in pilot screen (Z score < −2 for both replicates) [1] | DNA intercalation (competition with acridine orange) (salmon sperm DNA) | Inhibition of LANA 1-23 binding to nucleosomes ([1]; negative control for HTS) | Competition with acridine orange for DNA intercalation (acridine orange mP values) (salmon sperm DNA) | IC50 [1] [µM] | Scored positive for inhibition in HTS at ICCB-L/NSRB [1] | Inhibition of GST LANA1-23 binding to nucleosomes by ELISA [2]
1 | CC[C@@]1(O)C(=O)OCc2c1cc1n(c2=O)Cc2cc3cc(O)ccc3nc2-1 [10-HCT, 10-hydroxycamptothecin] | could not be confirmed | identified | inconsistently competed |  |  |  |  | 
2 | CC[C@@]1([C@@H]2O[C@@H]([C@H]3O[C@@](O)(CO)[C@H](C)C[C@@H]3C)C[C@@H]2C)CC[C@H]([C@]2(C)CC[C@]3(C[C@H](O)[C@@H](C)[C@@H]([C@@H](C)[C@@H](OC)[C@H](C)C(=O)O)O3)O2)O1 [Monensin, monensin] |  |  |  | did not inhibit | negligible effect |  |  | 
3 | CC[n+]1c(-c2ccccc2)c2cc(N)ccc2c2ccc(N)cc21 [EtBr, ethidium bromide] |  |  |  |  | reduced acridine orange mP values |  |  | 
4 | O=C1c2c(O)ccc(O)c2C(=O)c2c(NCCNCCO)ccc(NCCNCCO)c21 [MTX, mitoxantrone] |  | identified | scored positive for DNA intercalation |  | reduced acridine orange mP values | < 25 | scored positive | inhibitory activity
5 | COc1cccc2c1C(=O)c1c(O)c3c(c(O)c1C2=O)C[C@@](O)(C(C)=O)C[C@@H]3O[C@H]1C[C@H](N)[C@H](O)[C@H](C)O1 [daunorubicin] |  | identified | scored positive for DNA intercalation |  |  |  | scored positive | 
6 | CC[N+](C)(CC)CCC[n+]1c(-c2ccccc2)c2cc(N)ccc2c2ccc(N)cc21.[I-].[I-] [PI, propidium iodide] |  |  |  |  | reduced acridine orange mP values |  |  | 
7 | COc1cccc2c1C(=O)c1c(O)c3c(c(O)c1C2=O)C[C@@](O)(C(=O)CO)C[C@@H]3O[C@H]1C[C@H](N)[C@H](O)[C@H](C)O1 [doxorubicin] |  | identified | scored positive for DNA intercalation |  |  | < 25 | scored positive | inhibitory activity

— paper PMC4656118 (Journal of biomolecular screening, 2014)
